From US9067974B2, “Polymyxin derivatives and uses thereof” (priority 2006, dated 2015)

Assays:
E. coli IH3080 = assay: Sensitization to rifampin: well diffusion growth inhibition on LB plates containing rifampin; type: cell-based, Escherichia coli
Method: (§1) From an overnight-grown culture of IH3080 on LB agar, a suspension of approx. 10^8 cells/ml was prepared in 0.9% NaCl. Aliquots of this suspension were then pipetted on the agar plates and the plates were gently shaken to spread the suspension evenly on the entire surface of the plate. Thereafter, the unabsorbed part of the suspension was removed by using a Pasteur pipette. After the surface had dried, small wells (diameter, 2 mm) were drilled on the plates (five wells per plate) by using a sterile sharp-edged narrow metal tube, single-use pipette tip, and vacuum suction. […] Controls included 0.9% NaCl solution without the compound to be tested. The plates were then incubated for 18 h at 37° C. whereafter the diameters of growth inhibition zones around each well were measured; the diameter of the well itself was not reduced. Finally, the diameters were converted to surface areas of growth inhibition (in square mm).

E. coli IH3080 (K1:O18) = assay: Well diffusion growth inhibition on LB agar plates (direct antibacterial activity); type: cell-based, Escherichia coli
Method: Peptides synthesized in Example 1, all carrying at least two (2) but not more than three (3) positive charges, were studied for their ability to inhibit the growth of E. coli. This was tested employing LB agar (LB Agar Lennox, Difco, BD, Sparks, Md., U.S.A) plates. The indicator organism E. coli IH3080 (K1:O18) was an encapsulated strain originally isolated from a neonate suffering from meningitis (Vaara et al. 1984) and obtained from National Public Health Institute, Helsinki, Finland.
as §1

[1] = tested on: Acinetobacter baumannii ATCC 19606; assay: as above; type: cell-based; settings: A. baumannii ATCC 19606
Method: (§2) From an overnight-grown culture of IH3080 on LB agar, a suspension of approx. 10^8 cells/ml was prepared in 0.9% NaCl. Aliquots of this suspension were then pipetted on the agar plates and the plates were gently shaken to spread the suspension evenly on the entire surface of the plate. Thereafter, the unabsorbed part of the suspension was removed by using a Pasteur pipette. After the surface had dried, small wells (diameter, 2 mm) were drilled on the plates (five wells per plate) by using a sterile sharp-edged narrow metal tube, single-use pipette tip, and vacuum suction. Samples (4 μl and 10 μl) of the peptide solution in 0.9% NaCl (at concentrations of 1 μg/ml and 0.1 μg/ml) were then pipetted to the wells and the sample fluids were allowed to absorb. Controls included 0.9% NaCl solution without the compound to be tested. The plates were then incubated for 18 h at 37° C. whereafter the diameters of growth inhibition zones around each well were measured; the diameter of the well itself was not reduced. Finally, the diameters were converted to surface areas of growth inhibition (in square mm).
(§3) Direct antibacterial activity of twelve NAB compounds against Acinetobacter baumannii ATCC 19606 and Pseudomonas aeruginosa ATCC 27853 was tested by using the susceptibility determination method described in Example 2. Five compounds (NAB7062, NAB734, NAB737, NAB739, and NAB740) had notable activity against A. baumannii. […] The antibacterial activity of NAB739 and NAB740 were as strong as or even stronger than that of polymyxin B.

[2] = tested on: Pseudomonas aeruginosa ATCC 27853; assay: as above; type: cell-based; settings: Ps. aeruginosa ATCC 27853
Method: as §2, §3

A. baumannii ATCC 19606 = assay: Sensitization to rifampin: well diffusion growth inhibition on LB plates containing rifampin; type: cell-based, Acinetobacter baumannii; settings: 4 μg of compound
[3] = tested on: Ps. aeruginosa ATCC 27853; assay: as above; type: cell-based, Pseudomonas aeruginosa; settings: 4 μg of compound
[4] = 4 μg of compound, rifampin 0 μg/ml
[5] = 4 μg of compound, rifampin 0.1 μg/ml
[6] = 4 μg of compound, rifampin 1.0 μg/ml

Molecule | Antibacterial activity (growth inhibition area around a well) (E. coli IH3080 (K1:O18); 4 μg of compound per well) [square millimeters] | Antibacterial activity (growth inhibition area around a well) (E. coli IH3080 (K1:O18); 10 μg of compound per well) [square millimeters] | Antibacterial activity in the presence of rifampin (growth inhibition area around a well) (E. coli IH3080; [4]) [square millimeters] | Antibacterial activity in the presence of rifampin (growth inhibition area around a well) (E. coli IH3080; [5]) [square millimeters] | Antibacterial activity in the presence of rifampin (growth inhibition area around a well) (E. coli IH3080; [6]) [square millimeters] | other results
CO[C@H]1/C=C/O[C@@]2(C)Oc3c(C)c(O)c4c(O)c(c(/C=N/N5CCN(C)CC5)c(O)c4c3C2=O)NC(=O)/C(C)=C\C=C\[C@H](C)[C@H](O)[C@@H](C)[C@@H](O)[C@@H](C)[C@H](OC(C)=O)[C@@H]1C [rifampin, reference compound] | – | – | – | – | – | Concentration of rifampin needed for the inhibitory effect in the absence of the compounds tested (E. coli IH3080; LB plates): 10 µg/mL
DA-Thr-Abu-cy[Dab-Dab-DPhe-Leu-Dab-Dab-Thr-] [NAB 7062] | 50 | 99 | 50 | 104 | 104 | Antibacterial activity (growth inhibition area around a well) ([1]; 4 μg per well): 13 square millimeters; Antibacterial activity (growth inhibition area around a well) ([1]; 10 μg per well): 38 square millimeters; Antibacterial activity (growth inhibition area around a well) ([2]; 4 μg per well): 0 square millimeters; Antibacterial activity (growth inhibition area around a well) ([2]; 10 μg per well): 0 square millimeters; Antibacterial activity in the presence of rifampin (growth inhibition area around a well) (A. baumannii ATCC 19606; rifampin 0 μg/ml): 13 square millimeters; Antibacterial activity in the presence of rifampin (growth inhibition area around a well) (A. baumannii ATCC 19606; rifampin 0.1 μg/ml): 50 square millimeters; Antibacterial activity in the presence of rifampin (growth inhibition area around a well) (A. baumannii ATCC 19606; rifampin 0.3 μg/ml): 95 square millimeters; Antibacterial activity in the presence of rifampin (growth inhibition area around a well) ([3]; rifampin 0 μg/ml): 0 square millimeters; Antibacterial activity in the presence of rifampin (growth inhibition area around a well) ([3]; rifampin 0.1 μg/ml): 0 square millimeters; Antibacterial activity in the presence of rifampin (growth inhibition area around a well) ([3]; rifampin 0.3 μg/ml): 7 square millimeters
Deacylcolistin [reference compound] | 79 | 95 | 79 | 87 | 127 | –
Deacylpolymyxin B [reference compound] | 57 | 113 | 57 | 79 | 127 | –
MHA-Abu-Thr-Abu-cy[Dab-Dab-DPhe-Leu-Dab-Dab-Thr-] [NAB 707] | 5 | 7 | 5 | 87 | 113 | –
MHA-Dab-Thr-Dab-cy[Dab-Dab-DPhe-Leu-Abu-Abu-Thr-] [NAB 721] | 0 | 0 | 0 | 13 | 28 | –
MHA-Thr-Abu-cy[Dab-Dab-DPhe-Leu-Dab-Dab-Thr-] [NAB 706] | 5 | 7 | 5 | 79 | 133 | –
OA-Abu-cy[Dab-Dab-DPhe-Leu-Dab-Dab-Thr-] [NAB 713] | 0 | 0 | 0 | 20 | 38 | –
OA-DAla-DAla-cy[Dab-Dab-DPhe-Leu-Dab-Dab-Thr-] [NAB 733] | 0 | 0 | 0 | 95 | 113 | –
OA-Thr-Abu-cy[Dab-Abu-DPhe-Leu-Dab-Dab-Thr-] [NAB 710] | 0 | 7 | 0 | 7 | 13 | –
OA-Thr-Abu-cy[Dab-Dab-DPhe-Leu-Dab-Abu-Thr-] [NAB 709] | 0 | 0 | 0 | 0 | 13 | –
OA-Thr-Abu-cy[Dab-Lys-DPhe-Leu-Dab-Dab-Thr-] [NAB 731] | 0 | 0 | 0 | 0 | 5 | Antibacterial activity in the presence of rifampin (growth inhibition area around a well) (E. coli IH3080; 10 μg of compound, rifampin 1.0 μg/ml): 22 square millimeters
OA-Thr-Dab-cy[Dab-Abu-DPhe-Leu-Dab-Dab-Thr-] [NAB 715] | 0 | 0 | 0 | 0 | 33 | –
Polymyxin B heptapeptide [reference compound] | 0 | 0 | 0 | 0 | 38 | –
